Measured values taken from patent US9133115B2 (ACHILLION PHARMACEUTICALS, INC., priority 2008, dated 2015).
pEC50: −log10 of the molar value.

Tested on: HCV replicon
Experiment: HCV replicon replication assay (NPT ELISA) in Huh-7 replicon-containing cells
Format: cell-based
Conditions: Hepatitis C virus, 72 h; HCV replicon in Huh-7 cells, three days incubation; read-out: EC50
Method in brief: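 Huh-7 cells carrying a bicistronic HCV replicon (HCV-IRES-neo, EMCV-IRES-driven NS3–NS5B, 3′-NTR) were seeded at 6000-7500 cells/well, grown 24 h to 60-70% confluence, then treated with graded compound concentrations. Replication was read as NPT level by capture ELISA (rabbit anti-NPTII, Eu-N1 secondary); interferon alpha served as positive control.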

Question: With `C=C[C@@H]1C[C@]1(NC(=O)[C@@H]1C[C@@H](Oc2cc(-c3ccccc3)nc3cc(OC)ccc23)CN1C(=O)[C@@H](CC(=O)N1CCC(CNC(=O)OC(C)(C)C)CC1)C(C)(C)C)C(=O)NS(=O)(=O)C1CC1` [Compound 76, tert-butyl (1-((S)-3-((2S,4R)-2-((1R,2S)-1-(cyclopropylsulfonyl-carbamoyl)-2-vinylcyclopropyl-carbamoyl)-4-(7-methoxy-2-phenylquinolin-4-yloxy)pyrrolidine-1-carbonyl)-4,4-dimethylpentano-yl)piperidin-4-yl)methylcarbamate] as the compound, how does the pEC50 read?
Answer: > 6.00

Question: `C=C[C@@H]1C[C@]1(NC(=O)[C@@H]1C[C@@H](Oc2cc(-c3ccccc3)nc3cc(OC)ccc23)CN1C(=O)[C@@H](CC(=O)N1CCCCCC1)C(C)(C)C)C(=O)NS(=O)(=O)C1CC1` [Compound 77, (2S,4R)-1-((S)-4-(azepan-1-yl)-2-tert-butyl-4-oxobutanoyl)-N-((1R,2S)-1-(cyclopropyl-sulfonylcarbamoyl)-2-vinylcyclopropyl)-4-(7-methoxy-2-phenylquinolin-4-yloxy)pyrrolidine-2-carboxamide] was tested. Which pEC50 did it give?
Answer: > 6.00

Question: How did the pEC50 turn out when `C=C[C@@H]1C[C@]1(NC(=O)[C@@H]1C[C@@H](Oc2cc(-c3ccccc3)nc3cc(OC)ccc23)CN1C(=O)[C@@H](CC(=O)N1CCC(C(=O)NC)CC1)C(C)(C)C)C(=O)NS(=O)(=O)C1CC1` [Compound 78] was run?
Answer: > 6.00

Question: `C=C[C@@H]1C[C@]1(NC(=O)[C@@H]1C[C@@H](Oc2cc(-c3ccccc3)nc3cc(OC)ccc23)CN1C(=O)[C@@H](CC(=O)N1CC2CCC1C2)C(C)(C)C)C(=O)NS(=O)(=O)C1CC1` (stereo partly drawn) [Compound 79, (2S,4R)-1-((2S)-2-(2-(2-azabi-cyclo[2.2.1]heptan-2-yl)-2-oxoethyl)-3,3-dimethylbutanoyl)-N-((1R,2S)-1-(cyclopropyl-sulfonylcarbamoyl)-2-vinylcyclopropyl)-4-(7-methoxy-2-phenylquinolin-4-yloxy)pyrrolidine-2-carboxamide] was tested. Which pEC50 did it give?
Answer: > 6.00

Question: How did the pEC50 turn out when `C=C[C@@H]1C[C@]1(NC(=O)[C@@H]1C[C@@H](Oc2cc(-c3ccccc3)nc3cc(OC)ccc23)CN1C(=O)[C@@H](CC(=O)N1CCC(C(F)(F)F)CC1)C(C)(C)C)C(=O)NS(=O)(=O)C1CC1` [Compound 80, (2S,4R)-1-((S)-2-tert-butyl-4-oxo-4-(4-(trifluoro-methyl)piperidin-1-yl)butanoyl)-N-((1R,2S)-1-(cyclopropyl-sulfonylcarbamoyl)-2-vinylcyclopropyl)-4-(7-methoxy-2-phenylquinolin-4-yloxy)pyrrolidine-2-carboxamide] was run?
Answer: > 6.00

Question: How did the pEC50 turn out when `C=C[C@@H]1C[C@]1(NC(=O)[C@@H]1C[C@@H](Oc2cc(-c3ccccc3)nc3cc(OC)ccc23)CN1C(=O)[C@@H](CC(=O)N1CC2CC3CC(C2)CC1C3)C(C)(C)C)C(=O)NS(=O)(=O)C1CC1` [Compound 81] was run?
Answer: > 6.00

Question: With `C=C[C@@H]1C[C@]1(NC(=O)[C@@H]1C[C@@H](Oc2cc(-c3ccccc3)nc3cc(OC)ccc23)CN1C(=O)[C@@H](CC(=O)N1CCC(F)CC1)C(C)(C)C)C(=O)NS(=O)(=O)C1CC1` [Compound 82, (2S,4R)-1-((S)-2-tert-butyl-4-(4-fluoropiperidin-1-yl)-4-oxobutanoyl)-N-((1R,2S)-1-(cyclopropyl-sulfonylcarbamoyl)-2-vinylcyclopropyl)-4-(7-methoxy-2-phenylquinolin-4-yloxy)pyrrolidine-2-carboxamide] as the compound, how does the pEC50 read?
Answer: > 6.00

Question: How did the pEC50 turn out when `C=C[C@@H]1C[C@]1(NC(=O)[C@@H]1C[C@@H](Oc2cc(-c3ccccc3)nc3cc(OC)ccc23)CN1C(=O)[C@@H](CC(=O)N1CCCC(F)C1)C(C)(C)C)C(=O)NS(=O)(=O)C1CC1` (stereo partly drawn) [Compound 83, (2S,4R)-1-((2S)-2-tert-butyl-4-(3-fluoropiperidin-1-yl)-4-oxobutanoyl)-N-((1R,2S)-1-(cyclopropyl-sulfonylcarbamoyl)-2-vinylcyclopropyl)-4-(7-methoxy-2-phenylquinolin-4-yloxy)pyrrolidine-2-carboxamide] was run?
Answer: > 6.00

Question: `C=C[C@@H]1C[C@]1(NC(=O)[C@@H]1C[C@@H](O)CN1C(=O)[C@@H](CC(=O)N1CCCCC1)C(C)(C)C)C(=O)NS(=O)(=O)C1CC1` [Compound 84, (2S,4R)-1-((S)-2-tert-butyl-4-oxo-4-(piperidin-1-yl)butanoyl)-N-((1R,2S)-1-(cyclo-propylsulfonyl-carbamoyl)-2-vinylcyclopropyl)-4-hydroxypyrrolidine-2-carboxamide] was tested. Which pEC50 did it give?
Answer: 5.00 to 6.00

Question: How did the pEC50 turn out when `C=C[C@H]1C[C@]1(NC(=O)[C@@H]1C[C@@H](Oc2cc(-c3ccccc3)nc3cc(OC)ccc23)CN1C(=O)[C@@H](CC(=O)N1CCCCC1)C1CCCC1)C(=O)NS(=O)(=O)C1CC1` [Compound 86, (2S,4R)-1-((S)-2-cyclopentyl-4-oxo-4-(piperidin-1-yl)butanoyl)-N-((1R,2R)-1-(cyclo-propylsulfonyl-carbamoyl)-2-vinylcyclopropyl)-4-(7-methoxy-2-phenylquinolin-4-yloxy)pyrrolidine-2-carboxamide] was run?
Answer: > 6.00

Question: With `C=C[C@@H]1C[C@]1(NC(=O)[C@@H]1C[C@@H](Oc2cc(-c3ccccc3)nc3cc(OC)ccc23)CN1C(=O)[C@@H](CC(=O)N1CCCC1)C(C)(C)C)C(=O)NS(=O)(=O)C1CC1` [Compound 87, (2S,4R)-1-((S)-2-tert-butyl-4-oxo-4-(pyrrolidin-1-yl)butanoyl)-N-((1R,2S)-1-(cyclo-propylsulfonyl-carbamoyl)-2-vinylcyclopropyl)-4-(7-methoxy-2-phenylquinolin-4-yloxy)pyrrolidine-2-carboxamide] as the compound, how does the pEC50 read?
Answer: > 6.00

Question: With `C=C[C@@H]1C[C@]1(NC(=O)[C@@H]1C[C@@H](Oc2cc(-c3ccccc3)nc3cc(OC)ccc23)CN1C(=O)[C@@H](CC(=O)N1CCC[C@H]1C(=O)N(C)C)C(C)(C)C)C(=O)NS(=O)(=O)C1CC1` [Compound 88, (2S,4R)-1-((S)-2-tert-butyl-4-((S)-2-(dimethylcarbamo-yl)pyrrolidin-1-yl)-4-oxobutanoyl)-N-((1R,2S)-1-(cyclopropylsulfonyl-carbamoyl)-2-vinylcyclopropyl)-4-(7-methoxy-2-phenylquinolin-4-yloxy)pyrrolidine-2-carboxamide] as the compound, how does the pEC50 read?
Answer: > 6.00

Question: How did the pEC50 turn out when `C=C[C@@H]1C[C@]1(NC(=O)[C@@H]1C[C@@H](Oc2cc(-c3ccccc3)nc3cc(OC)ccc23)CN1C(=O)[C@@H](CC(=O)N1CCC(F)(F)C1)C(C)(C)C)C(=O)NS(=O)(=O)C1CC1` [Compound 89, (2S,4R)-1-((S)-2-tert-butyl-4-(3,3-difluoropyrrolidin-1-yl)-4-oxobutanoyl)-N-((1R,2S)-1-(cyclopropylsulfonyl-carbamoyl)-2-vinylcyclopropyl)-4-(7-methoxy-2-phenylquinolin-4-yloxy)pyrrolidine-2-carboxamide] was run?
Answer: > 6.00

Question: How did the pEC50 turn out when `C=C[C@@H]1C[C@]1(NC(=O)[C@@H]1C[C@@H](Oc2cc(-c3ccccc3)nc3cc(OC)ccc23)CN1C(=O)[C@@H](CC(=O)N1CCC(N(C)C)C1)C(C)(C)C)C(=O)NS(=O)(=O)C1CC1` (stereo partly drawn) [Compound 90, (2S,4R)-1-((2S)-2-tert-butyl-4-(3-(dimethylamino)pyr-rolidin-1-yl)-4-oxobutanoyl)-N-((1R,2S)-1-(cyclopropylsulfonyl-carbamoyl)-2-vinylcyclopropyl)-4-(7-methoxy-2-phenylquinolin-4-yloxy)pyrrolidine-2-carboxamide] was run?
Answer: 5.00 to 6.00

Question: How did the pEC50 turn out when `C=CC1C[C@]1(NC(=O)[C@@H]1C[C@@H](Oc2cc(-c3ccccc3)nc3cc(OC)ccc23)CN1C(=O)[C@@H](CC(=O)N1CCCCC1)CC(C)C)C(=O)NS(=O)(=O)C1CC1` (stereo partly drawn) [Compound 91, (2S,4R)-N-((1R,2R)-1-(cyclopropyl-sulfonylcarbamoyl)-2-vinylcyclopropyl)-4-(7-methoxy-2-phenylquinolin-4-yloxy)-1-((R)-4-methyl-2-(2-oxo-2-(piperidin-1-yl)ethyl)pentano-yl)pyrrolidine-2-carboxamide] was run?
Answer: > 6.00

Question: How did the pEC50 turn out when `C=C[C@@H]1C[C@]1(NC(=O)[C@@H]1C[C@@H](Oc2cc(-c3ccccc3)nc3cc(OC)ccc23)CN1C(=O)[C@@H](CC(=O)N1CCCCC1)C(C)(C)C)C(=O)NS(=O)(=O)C1CCCCC1` [Compound 92, (2S,4R)-1-((S)-2-tert-butyl-4-oxo-4-(piperidin-1-yl)butanoyl)-N-((1R,2S)-1-(cyclo-hexylsulfonyl-carbamoyl)-2-vinyl-cyclopropyl)-4-(7-methoxy-2-phenylquinolin-4-yloxy)pyrrolidine-2-carboxamide] was run?
Answer: > 6.00

Question: `C=C[C@@H]1C[C@]1(NC(=O)[C@@H]1C[C@@H](OC(=O)Nc2ccccc2C(=O)OC)CN1C(=O)[C@@H](CC(=O)N1CCCCC1)C(C)(C)C)C(=O)NS(=O)(=O)C1CC1` [Compound 93, methyl 2-(((3R,5S)-1-((S)-2-tert-butyl-4-oxo-4-(piperidin-1-yl)butanoyl)-5-((1R,2S)-1-(cyclo-propylsulfonyl-carbamoyl)-2-vinylcyclopropyl-carbamoyl)pyrrolidin-3-yloxy)carbonyl-amino)benzoate] was tested. Which pEC50 did it give?
Answer: > 6.00

Question: How did the pEC50 turn out when `C=C[C@@H]1C[C@]1(NC(=O)[C@@H]1C[C@@H](OC(=O)Nc2ccccc2C(=O)OCC)CN1C(=O)[C@@H](CC(=O)N1CCCCC1)C(C)(C)C)C(=O)NS(=O)(=O)C1CC1` [Compound 94] was run?
Answer: > 6.00

Question: With `C=C[C@@H]1C[C@]1(NC(=O)[C@@H]1C[C@@H](OC(=O)Nc2cccc(Oc3ccccc3)c2)CN1C(=O)[C@@H](CC(=O)N1CCCCC1)C(C)(C)C)C(=O)NS(=O)(=O)C1CC1` [Compound 95, (3R,5S)-1-((S)-2-tert-butyl-4-oxo-4-(piperidin-1-yl)butanoyl)-5-((1R,2S)-1-(cyclopropylsulfonyl-carbamoyl)-2-vinylcyclopropyl-carbamoyl)pyrrolidin-3-yl 3-phenoxyphenyl-carbamate] as the compound, how does the pEC50 read?
Answer: 5.00 to 6.00
